Measurements published in the supplement of paper PMC4862054.

Columns and labels:
Experiment in all cases: normalised response (% of control), CellTiter-Glo; higher = more viable cells (100 = DMSO, 0 = benzethonium chloride kill control)
Details in all cases: incubation time: 72 h
CAL-51 = tested on: CAL-51
Outline: (§1)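 Two readouts were taken after 72 h: CellTox Green fluorescence (485/520 nm) first, then CellTiter-Glo luminescence after 10 min at room temperature. Breast cancer cell lines had been seeded as 20 µl suspension into 384-well plates holding compound at 5 concentrations in 10-fold steps across a compound-specific 10,000-fold range. Each value is a normalised signal at a single concentration, with plates scaled to 0.1 % DMSO (100) and a positive kill control (0).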

BT-549 = tested on: BT-549
Outline: as §1

CAL-148 = tested on: CAL-148
Outline: as §1

MDA-MB-468 = tested on: MDA-MB-468
Outline: as §1

MDA-MB-231 = tested on: MDA-MB-231
Outline: as §1

Hs578T = tested on: Hs578T
Outline: as §1

HCC1599 = tested on: HCC1599
Outline: as §1

SK-BR-3 = tested on: SK-BR-3
Outline: as §1

MCF-10A = tested on: MCF-10A
Outline: as §1

BT-474 = tested on: BT-474
Outline: as §1

CAL-85-1 = tested on: CAL-85-1
Outline: as §1

MFM-223 = tested on: MFM-223
Outline: as §1

HCC1143 = tested on: HCC1143
Outline: as §1

CAL-120 = tested on: CAL-120
Outline: as §1

DU-4475 = tested on: DU-4475
Outline: as §1

HCC1937 = tested on: HCC1937
Outline: as §1

MDA-MB-436 = tested on: MDA-MB-436
Outline: as §1

HDQ-P1 = tested on: HDQ-P1
Outline: as §1

MDA-MB-453 = tested on: MDA-MB-453
Outline: as §1

Structure (SMILES) | normalised response (CAL-51) | normalised response (BT-549) | normalised response (CAL-148) | normalised response (MDA-MB-468) | normalised response (MDA-MB-231) | normalised response (Hs578T) | normalised response (HCC1599) | normalised response (SK-BR-3) | normalised response (MCF-10A) | normalised response (BT-474) | normalised response (CAL-85-1) | normalised response (MFM-223) | normalised response (HCC1143) | normalised response (CAL-120) | normalised response (DU-4475) | normalised response (HCC1937) | normalised response (MDA-MB-436) | normalised response (HDQ-P1) | normalised response (MDA-MB-453)
CC[C@H](CO)Nc1nc(NCc2ccccc2)c2ncn(C(C)C)c2n1 [Seliciclib] (1 nM) | 88.7% | 97.2% | 106% | 98% | 107% | 100% | 92.9% | 107% | 97.1% | 100% | 100% | 104% | 101% | 96.7% | 106% | 97.3% | 104% | 102% | 104%
CN(C)C(=N)NC(=N)N [Metformin] (100 nM) | 117% | 99% | 93.7% | 88% | 102% | 94% | 97.6% |  | 77.5% | 91.7% | 95.7% | 87.2% | 101% | 108% | 93% | 99.6% | 95.4% | 99.4% | 76.8%
O=[N+]([O-])c1ccc2c(c1)S(=O)(=O)C=C2 [Stattic] (50 nM) | 107% | 94.6% | 103% | 96.9% | 101% | 103% | 110% |  | 102% | 98.6% | 96.5% | 102% | 106% | 98.9% | 99.9% | 102% | 96.4% | 100% | 97.1%
CCNC(=O)CCC/C=C\C[C@@H]1[C@@H](/C=C/[C@@H](O)CCc2ccccc2)[C@H](O)C[C@@H]1O [Bimatoprost] (5.5 nM) | 106% | 91.7% | 92.8% | 96.5% | 101% | 98.4% | 96.9% |  | 96.4% | 96.6% | 96.1% | 96.1% | 99.4% | 93.1% | 99.5% | 96% | 102% | 94.5% | 96.8%
CC1(COc2ccc3c(c2)ncn3-c2ccc3cccc(N4CCC(N)CC4)c3n2)COC1 [Crenolanib] (1 nM) | 123% | 110% | 102% | 102% | 98.7% | 103% | 105% | 106% | 116% | 102% | 96.6% | 99.5% | 98.5% | 98.5% | 108% | 103% | 97.9% | 102% | 90.9%
CN(Cc1cnc2nc(N)nc(N)c2n1)c1ccc(C(=O)N[C@@H](CCC(=O)O)C(=O)O)cc1 [Methotrexate] (50 nM) | 63.7% | 100% | 109% | 92.8% | 100% | 47.6% | 51.9% | 74.7% | 111% | 101% | 76.7% | 108% | 84.5% | 32.5% | 88.4% | 33% | 86.1% | 35.5% | 114%
CN[C@@H](C)C(=O)N[C@H]1CN(C(=O)CC(C)C)CC[C@H]2CC[C@@H](C(=O)NC(c3ccccc3)c3ccccc3)N2C1=O [AT-406] (1 nM) | 125% | 106% | 98.3% | 98.3% | 98.3% | 95.1% | 104% | 105% | 108% | 101% | 96.8% | 101% | 109% | 98.4% | 98.2% | 101% | 108% | 99.9% | 103%
CC(=O)[C@]1(O)Cc2c(O)c3c(c(O)c2[C@@H](O[C@H]2C[C@H](N)[C@H](O)[C@H](C)O2)C1)C(=O)c1ccccc1C3=O [Idarubicin] (1 nM) | 91.5% | 90.5% | 116% | 97.7% | 109% | 99.5% | 91.1% |  | 105% | 111% | 103% | 109% | 107% | 104% | 101% | 99.9% | 113% | 99.7% | 101%
CO[C@@H]1[C@H](N(C)C(=O)c2ccccc2)C[C@H]2O[C@]1(C)n1c3ccccc3c3c4c(c5c6ccccc6n2c5c31)C(=O)NC4 [Midostaurin] (10 nM) | 97.2% | 107% | 105% | 106% | 102% | 99.4% | 123% | 96.1% | 96.3% | 98.6% | 100% | 96.7% | 98.9% | 96% | 97.5% | 95.3% | 104% | 97.5% | 96.7%
O=C(O)CNC(=O)c1c(O)c2ccccc2n(Cc2ccccc2)c1=O [IOX-2] (5 nM) | 99.5% | 95.9% | 94.5% | 93.6% | 94.5% | 95% | 103% | 95.3% | 106% | 99.3% | 95.9% | 92.5% | 94.8% | 93.9% | 97.3% | 95% | 95.4% | 100% | 104%
CO[C@@]12[C@H](COC(N)=O)C3=C(C(=O)C(C)=C(N)C3=O)N1C[C@@H]1N[C@@H]12 [Mitomycin C] (10 nM) | 105% | 98.3% | 86.7% | 92.8% | 97% | 98.7% | 82.3% | 94.4% | 96.3% | 92.7% | 96.5% | 97.2% | 96.3% | 96.9% | 98.9% | 101% | 91% | 96.7% | 89%
O=C(O)CNC(=O)c1c(O)c2ccccc2n(Cc2ccccc2)c1=O [IOX-2] (50 nM) | 88% | 93.9% | 98.7% | 92.9% | 99.5% | 102% | 94.1% |  | 103% | 96.9% | 97.1% | 104% | 94.5% | 98.1% | 95.1% | 93.6% | 96.9% | 95.7% | 86.3%
CC[C@H](CO)Nc1nc(NCc2ccccc2)c2ncn(C(C)C)c2n1 [Seliciclib] (10 nM) | 113% | 99.9% | 110% | 98.9% | 104% | 105% | 103% |  | 107% | 102% | 108% | 101% | 98.7% | 91.9% | 103% | 104% | 110% | 94.5% | 104%
COc1ccc(S(=O)(=O)Nc2cccnc2Nc2ccc(O)cc2)cc1 [ABT-751] (10 nM) | 117% | 95.8% | 93.6% | 98.2% | 100% | 93.8% | 124% |  | 101% | 101% | 97.5% | 96.7% | 106% | 101% | 102% | 97.5% | 108% | 98.5% | 105%
Nc1ccn([C@@H]2O[C@H](CO)[C@@H](O)C2(F)F)c(=O)n1 [Gemcitabine] (1 nM) | 66% | 95% | 95.6% | 95.7% | 97.4% | 98.1% | 109% |  | 109% | 100% | 101% | 101% | 100% | 95.9% | 94% | 95.7% | 95.5% | 99.3% | 101%
C/C(=C\c1csc(C)n1)[C@@H]1C[C@@H]2O[C@]2(C)CCC[C@H](C)[C@H](O)[C@@H](C)C(=O)C(C)(C)[C@@H](O)CC(=O)N1 [Ixabepilone] (1 nM) | 129% | 95.5% | 102% | 104% | 101% | 105% | 85.5% |  | 103% | 106% | 99.8% | 106% | 98.1% | 100% | 102% | 97.6% | 99.3% | 98.5% | 107%
O=C(CCCCCCC(=O)Nc1ccccc1)NO [Vorinostat] (10 nM) | 117% | 106% | 98.6% | 106% | 98.2% | 98.1% | 102% |  | 102% | 97.6% | 105% | 101% | 98.4% | 87.9% | 105% | 101% | 105% | 94.6% | 90.3%
CC1(COc2ccc3c(c2)ncn3-c2ccc3cccc(N4CCC(N)CC4)c3n2)COC1 [Crenolanib] (10 nM) | 90.6% | 95.6% | 110% | 102% | 106% | 98.7% | 96.2% |  | 106% | 105% | 99.2% | 108% | 105% | 97.8% | 103% | 104% | 94.8% | 103% | 94.6%
CCn1c(C(=O)N(C2CC2)C2CC2)cc2c3c(ncn3C)c(Nc3cc(C)n(C)n3)nc21 (10 nM) | 85.3% | 95.2% | 107% | 106% | 100% | 105% | 82.5% |  | 99.8% | 93.5% | 101% | 102% | 104% | 97.3% | 96.9% | 99.5% | 103% | 95.6% | 93.3%
CC(C)(C)c1nc(-c2cccc(NS(=O)(=O)c3c(F)cccc3F)c2F)c(-c2ccnc(N)n2)s1 [Dabrafenib] (2.5 nM) | 109% | 99.1% | 112% | 105% | 102% | 103% | 99.8% |  | 112% | 101% | 99% | 101% | 105% | 98.5% | 104% | 98.4% | 101% | 105% | 111%
